# Results: US6673794B2, “Substituted aminomethyl-phenyl-cyclohexane derivatives” (Gruenenthal GmbH, priority 2000, dated 2004)
# Test system: Male NMRI mice
# Assay: phenylquinone-induced writhing test in mice
# Type: in vivo
# Conditions: 10 minutes before phenylquinone i.p., writhing counted 5-20 minutes after phenylquinone; for inhibition in vivo at 10 mg/kg: Mus musculus, iv, 10 mg/kg i.v., read-out: % inhibition of the writhing reactions (10 mg/kg i.v.); for % inhibition of the writhing reactions (10 mg/kg i.v.): mouse writhing test
# Method: The antinociceptive activity of the compounds according to the invention was investigated in mice in the phenylquinone-induced writhing test, modified by I.C. Hendershot, J. Forsaith, J. Pharmacol. Exp. Ther. 125, 237-240 (1959). Male NMRI mice weighing 25-30 g were used. Groups of 10 animals per substance dose received 0.3 ml/mouse of a 0.02% aqueous solution of phenylquinone (phenylbenzoquinone, Sigma, Deisenhofen; preparation of the solution with the addition of 5% ethanol and storage in a water bath at 45° C.) administered intraperitoneally 10 minutes after intravenous administration of a compound according to the invention. The animals were placed individually in observation cages. The number of pain-induced stretching movements (so-called writhing reactions, that is straightening of the body with stretching of the hind extremities) was counted by means of a push-button counter for 5-20 minutes after the administration of phenylquinone. Animals which received physiological saline solution i.v. and phenylquinone […]. were also run as a control.
# All substances were tested in the standard dose of 10 mg/kg. The percentage inhibition (% inhibition) of the writhing reactions by a substance was calculated according to the following equation:
# % inhibition=100−(WRtreated animals/WRcontrol×100)
SMILES,inhibition in vivo at 10 mg/kg,% inhibition of the writhing reactions (10 mg/kg i.v.)
"CN(C)CC1CC/C(=C/c2cccc(C(=O)O)c2)C=C1c1cccc(O)c1 (centres unmarked) [Compound 48, Z-3-[4-Dimethylaminomethyl-3-(3-hydroxy-phenyl)-cyclohex-2-enylidenemethyl]-benzoic acid]",98%,–
"COc1cccc(C2=C/C(=C\c3cccc(C(=O)OCC(C)C)c3)CCC2CN(C)C)c1 (centres unmarked) [Compound 39, Z-3-[4-Dimethylaminomethyl-3-(3-methoxy-phenyl)-cyclohex-2-enylidenemethyl]-benzoic acid isobutyl ester]",78%,–
"CN(C)C[C@@H]1CC/C(=C\c2cccc(CO)c2)C[C@H]1c1cccc(O)c1 (racemic) [Compound 19, rac-trans-E-3-[2-dimethylaminomethyl-5-(3-hydroxymethyl-benzylidene)-cyclohexyl]-phenol]",82%,–
"CCOC(=O)c1cccc(/C=C2/C=C(c3cccc(OC)c3)C(CN(C)C)CC2)c1 (centres unmarked) [Compound 33, E-3-[4-Dimethylaminomethyl-3-(3-methoxy-phenyl)-cyclohex-2-enylidenemethyl]-benzoic acid ethyl ester]",90%,–
"COc1cccc(C2=C/C(=C/c3cccc(C(=O)O)c3)CCC2CN(C)C)c1 (centres unmarked) [Compound 15, E-3-[4-Dimethylaminomethyl-3-(3-methoxy-phenyl)-cyclohex-2-enylidenemethyl]-benzoic acid]",100%,–
"CCOC(=O)c1cccc(/C=C2/CC[C@H](CN(C)C)[C@H](c3cccc(OC)c3)C2)c1 (racemic) [Compound 30, rac-cis-Z-3-[4-Dimethylaminomethyl-3-(3-methoxy-phenyl)-cyclohexylidenemethyl]-benzoic acid ethyl ester]",84%,–
"CCN(CC)C(=O)c1cccc(/C=C2\C=C(c3cccc(OC)c3)C(CN(C)C)CC2)c1 (centres unmarked) [Compound 34, Z-3-[4-Dimethylaminomethyl-3-(3-methoxy-phenyl)-cyclohex-2-enylidenemethyl]-N,N-diethyl-benzamide]",78%,–
"COc1cccc(C2=C/C(=C\c3cccc(CO)c3)CCC2CN(C)C)c1 (centres unmarked) [Compound 25, Z-{3-[4-Dimethylaminomethyl-3-(3-methoxy-phenyl)-cyclohex-2-enylidenemethyl]-phenyl}-methanol]",100%,–
"COc1cccc(C2=C/C(=C/c3cccc(C(=O)OC(C)(C)C)c3)CCC2CN(C)C)c1 (centres unmarked) [Compound 21, E-3-[4-Dimethylaminomethyl-3-(3-methoxy-phenyl)-cyclohex-2-enylidenemethyl]-benzoic acid tert-butyl ester]",79%,–
"CN(C)CC1=C(c2cccc(O)c2)C/C(=C\c2cccc(CO)c2)CC1 [Compound 24, Z-3-[2-dimethylaminomethyl-5-(3-hydroxymethyl-benzylidene)-cyclohex-1-enyl]-phenol]",100%,–
CCN(CC)C(=O)c1cccc(/C=C2\CCC(CN(C)C)C(c3cccc(OC)c3)C2)c1 (racemic) [Compound 32],100%,–
"CN(C)C[C@@H]1CC/C(=C/c2ccccc2)C[C@H]1c1cccc(O)c1 (racemic) [Compound 23, rac-trans-Z-3-(5-Benzylidene-2-dimethylaminomethyl-cyclohexyl)-phenol]",88%,–
"COC(=O)c1cccc(C=C2CCC(CN(C)C)C(c3cccc(OC)c3)C2)c1 (racemic) [Compound 8, rac-trans-E-3-[4-dimethylaminomethyl-3-(3-methoxy-phenyl)-cyclohexylidenemethyl]-benzoic acid methyl ester]",98%,–
"COc1cccc(C2=C/C(=C/c3cccc(CO)c3)CCC2CN(C)C)c1 (centres unmarked) [Compound 16, E-{3-[4-dimethylaminomethyl-3-(3-methoxy-phenyl)-cyclohex-2-enylidenemethyl]-phenyl}-methanol]",98%,–
"COC(=O)c1cccc(/C=C2/C=C(c3cccc(O)c3)C(CN(C)C)CC2)c1 (centres unmarked) [Compound 37, E-3-[4-dimethylaminomethyl-3-(3-hydroxy-phenyl)-cyclohex-2-enylidenemethyl]-benzoic acid methyl ester]",91%,–
"CCN(CC)C(=O)c1cccc(/C=C2\CC[C@H](CN(C)C)[C@H](c3cccc(OC)c3)C2)c1.Cl (racemic) [Compound 35, rac-cis-E-3-[4-Dimethylaminomethyl-3-(3-methoxy-phenyl)-cyclohexylidenemethyl]-N,N-diethyl-benzamide]",–,100%
"CN(C)C[C@@H]1CC/C(=C\c2ccccc2)C[C@H]1c1cccc(O)c1 (racemic) [Compound 20, rac-trans-E-3-(5-benzylidene-2-dimethylaminomethyl-cyclohexyl)-phenol]",84%,–
"CN(C)CC1CC/C(=C\c2cccc(CO)c2)C=C1c1cccc(O)c1 (centres unmarked) [Compound 22, E-3-[6-Dimethylaminomethyl-3-(3-hydroxymethyl-benzylidene)-cyclohex-1-enyl]-phenol]",93%,–
"COc1cccc(C2=C/C(=C\c3cccc(C(=O)O)c3)CCC2CN(C)C)c1 (centres unmarked) [Compound 14, Z-3-[4-Dimethylaminomethyl-3-(3-methoxy-phenyl)-cyclohex-2-enylidenemethyl]-benzoic acid]",94%,–
"CCN(CC)C(=O)c1cccc(/C=C2/CC[C@@H](CN(C)C)[C@H](c3cccc(OC)c3)C2)c1 (racemic) [Compound 36, rac-trans-Z-3-[4-Dimethylaminomethyl-3-(3-methoxy-phenyl)-cyclohexylidenemethyl]-N,N-diethyl-benzamide]",100%,–
"COc1cccc([C@@H]2C/C(=C/c3cccc(C(=O)O)c3)CC[C@@H]2CN(C)C)c1.Cl (racemic) [Compound 26, rac-cis-E-3-[4-Dimethylaminomethyl-3-(3-methoxy-phenyl)-cyclohexylidenemethyl]-benzoic acid]",–,87%
"COc1cccc([C@@H]2C/C(=C/c3cccc(C(=O)O)c3)CC[C@H]2CN(C)C)c1 (racemic) [Compound 18, rac-trans-E-3-[4-Dimethylaminomethyl-3-(3-methoxy-phenyl)-cyclohexylidenemethyl]-benzoic acid]",100%,–
"COc1cccc([C@@H]2C/C(=C\c3cccc(C(=O)O)c3)CC[C@H]2CN(C)C)c1 (racemic) [Compound 17, rac-trans-Z-3-[4-Dimethylaminomethyl-3-(3-methoxy-phenyl)-cyclohexylidenemethyl]-benzoic acid]",85%,–
